In US20250313572A1, “MACROCYCLIC MCL-1 INHIBITORS AND METHODS OF USE” (AbbVie Inc., priority 2017, published 2025):
Read-outs that look alike come from different tables or passages of the source.

What was measured:
GST-MCL-1 = GST-MCL-1 (Homo sapiens, UniProt Q07820); test: TR-FRET MCL-1 binding assay (competition with probe F-Bak)
How it was run: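 Displacement of F-Bak from GST-MCL-1 is detected by time-resolved FRET with a Tb-labelled anti-GST antibody, with excitation 340/35 nm and emission 520/525 and 495/510 nm, after 2 hours at room temperature. Compounds were titrated in 11 three-fold steps starting at 25 μM final, in buffer alone or in 10% HS.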

[1] = test system: AMO-1 human multiple myeloma tumor cell line; test: AMO-1 cell viability assay (CellTiter-Glo, 24 hours); format: cell-based; conditions: Homo sapiens, AMO1, 24 h, read-out: AMO-1 Viability IC50 (μM, 10% FBS), 10% FBS, 24 hours of compound treatment
[2] = test system: NCI-H929 human multiple myeloma tumor cell line; test: NCI-H929 cell viability assay (CellTiter-Glo, 24 hours); format: cell-based; conditions: Homo sapiens, NCI-H929, 24 h, read-out: H929 Viability IC50 (μM, 10% FBS), 10% FBS, 24 hours of compound treatment
Protocol: Each concentration was tested in duplicate at least 3 independent times. A luminescent signal proportional to the number of viable cells following 24 hours of compound treatment was determined using the CellTiter-Glo® Luminescent Cell Viability Assay according to the manufacturer's recommendations (Promega Corp., Madison, WI). The plates were read in a Perkin Elmer Envision using a Luminescence protocol. To generate dose response curves the data is normalized to percent viability by setting the averages of the staurosporine (10 μM) and DMSO only control wells to 0% and 100% viability respectively.

[3] = MCL-1 Binding Ki (nM, 10% HS), in the presence of 10% HS (human serum)
[4] = without HS, read-out: MCL-1 Binding Ki

GST-MCL-1, sequence (Q07820 whole entry): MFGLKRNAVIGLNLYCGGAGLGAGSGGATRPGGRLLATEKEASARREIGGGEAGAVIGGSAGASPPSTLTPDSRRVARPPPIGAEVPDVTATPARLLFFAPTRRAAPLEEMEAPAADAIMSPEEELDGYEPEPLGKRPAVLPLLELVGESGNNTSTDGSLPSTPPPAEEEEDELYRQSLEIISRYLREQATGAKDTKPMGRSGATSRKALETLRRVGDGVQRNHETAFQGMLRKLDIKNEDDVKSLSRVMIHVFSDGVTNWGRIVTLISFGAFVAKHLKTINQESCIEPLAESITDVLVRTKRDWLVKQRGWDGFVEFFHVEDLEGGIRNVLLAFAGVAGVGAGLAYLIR

Row | SMILES | Ki (GST-MCL-1; [3]) [nM] | Ki (GST-MCL-1; [4]) [nM] | IC50 [1] [µM] | IC50 [2] [µM]
1 | Cc1c(Cl)c2c(Cl)c(C)c1-c1c(-c3ccc(F)cc3)sc3ncnc(c13)O[C@@H](C(=O)O)Cc1cc(ccc1OCc1ccnc(N3CC4(C3)CC(F)(F)C4)n1)OC[C@@H](CN1CCN(C)CC1)O2 [Example 48, (7R,16R)-19,23-dichloro-10-{[2-(6,6-difluoro-2-azaspiro[3.3]heptan-2-yl)pyrimidin-4-yl]methoxy}-1-(4-fluorophenyl)-20,22-dimethyl-16-[(4-methylpiperazin-1-yl)methyl]-7,8,15,16-tetrahydro-18,21-etheno-9,13-(metheno)-6,14,17-trioxa-2-thia-3,5-diazacyclononadeca[1,2,3-cd]indene-7-carboxylic Acid] | 5.32 | 0.644 | 0.00275 | 0.00798
2 | Cc1c(Cl)c2c(Cl)c(C)c1-c1c(-c3ccc(F)cc3)sc3ncnc(c13)O[C@@H](C(=O)O)Cc1cc(ccc1OCc1ccnc(N3CCC(CC(=O)O)CC3)n1)OC[C@@H](CN1CCN(C)CC1)O2 [Example 49, (7R,16R)-10-({2-[4-(carboxymethyl)piperidin-1-yl]pyrimidin-4-yl}methoxy)-19,23-dichloro-1-(4-fluorophenyl)-20,22-dimethyl-16-[(4-methylpiperazin-1-yl)methyl]-7,8,15,16-tetrahydro-18,21-etheno-13,9-(metheno)-6,14,17-trioxa-2-thia-3,5-diazacyclononadeca[1,2,3-cd]indene-7-carboxylic Acid] | 0.775 | 0.039 | 0.0222 | 0.0431
3 | COCCOCCOCCOCCOCCOCCOCCOCCOCCOCCOCCC(=O)NCc1ccc(-c2nccc(COc3ccc4cc3C[C@H](C(=O)O)Oc3ncnc5sc(-c6ccc(F)cc6)c(c35)-c3c(C)c(Cl)c(c(Cl)c3C)O[C@H](CN3CCN(C)CC3)CO4)n2)cc1 [Example 50, (7R,16R)-19,23-dichloro-1-(4-fluorophenyl)-20,22-dimethyl-16-[(4-methylpiperazin-1-yl)methyl]-10-({2-[4-(35-oxo-2,5,8,11,14,17,20,23,26,29,32-undecaoxa-36-azaheptatriacontan-37-yl)phenyl]pyrimidin-4-yl}methoxy)-7,8,15,16-tetrahydro-18,21-etheno-13,9-(metheno)-6,14,17-trioxa-2-thia-3,5-diazacyclononadeca[1,2,3-cd]indene-7-carboxylic Acid] | 0.513 | 0.199 | 0.0676 | 0.103
4 | Cc1c(Cl)c2c(Cl)c(C)c1-c1c(-c3ccc(F)cc3)sc3ncnc(c13)O[C@@H](C(=O)O)Cc1cc(ccc1OCc1ccnc(-c3cccc(CP(C)(C)=O)c3)n1)OC[C@@H](CN1CCN(C)CC1)O2 [Example 51, (7R,16R)-19,23-dichloro-10-[(2-{3-[(dimethylphosphoryl)methyl]phenyl}pyrimidin-4-yl)methoxy]-1-(4-fluorophenyl)-20,22-dimethyl-16-[(4-methylpiperazin-1-yl)methyl]-7,8,15,16-tetrahydro-18,21-etheno-13,9-(metheno)-6,14,17-trioxa-2-thia-3,5-diazacyclononadeca[1,2,3-cd]indene-7-carboxylic Acid] | 0.076 | 0.011 | 0.0034 | 0.00671
5 | COCCOCCOCCC1CCN(c2nccc(COc3ccc4cc3C[C@H](C(=O)O)Oc3ncnc5sc(-c6ccc(F)cc6)c(c35)-c3c(C)c(Cl)c(c(Cl)c3C)O[C@H](CN3CCN(C)CC3)CO4)n2)CC1 [Example 52, (7R,16R)-19,23-dichloro-1-(4-fluorophenyl)-10-{[2-(4-{2-[2-(2-methoxyethoxy)ethoxy]ethyl}piperidin-1-yl)pyrimidin-4-yl]methoxy}-20,22-dimethyl-16-[(4-methylpiperazin-1-yl)methyl]-7,8,15,6-tetrahydro-18,21-etheno-9,13-(metheno)-6,14,17-trioxa-2-thia-3,5-diazacyclononadeca[1,2,3-cd]indene-7-carboxylic Acid] | 3.31 | 0.348 | 0.000648 | 0.00269
6 | COCCOCCOCCOCCCN1CCN(c2nccc(COc3ccc4cc3C[C@H](C(=O)O)Oc3ncnc5sc(-c6ccc(F)cc6)c(c35)-c3c(C)c(Cl)c(c(Cl)c3C)O[C@H](CN3CCN(C)CC3)CO4)n2)CC1 [Example 53, (7R,16R)-19,23-dichloro-1-(4-fluorophenyl)-20,22-dimethyl-16-[(4-methylpiperazin-1-yl)methyl]-10-({2-[4-(2,5,8,11-tetraoxatetradecan-14-yl)piperazin-1-yl]pyrimidin-4-yl}methoxy)-7,8,15,16-tetrahydro-18,21-etheno-13,9-(metheno)-6,14,17-trioxa-2-thia-3,5-diazacyclononadeca[1,2,3-cd]indene-7-carboxylic Acid] | 0.632 | 0.301 | 0.0042 | 0.00571
7 | COCCOCCOCCOCCOCCOCCOCCOc1ccc(-c2nccc(COc3ccc4cc3C[C@H](C(=O)O)Oc3ncnc5sc(-c6ccc(F)cc6)c(c35)-c3c(C)c(Cl)c(c(Cl)c3C)O[C@H](CN3CCN(C)CC3)CO4)n2)cc1 [Example 54, (7R,16R)-19,23-dichloro-1-(4-fluorophenyl)-10-[(2-{4-[(2,5,8,11,14,17,20-heptaoxadocosan-22-yl)oxy]phenyl}pyrimidin-4-yl)methoxy]-20,22-dimethyl-16-[(4-methylpiperazin-1-yl)methyl]-7,8,15,16-tetrahydro-18,21-etheno-13,9-(metheno)-6,14,17-trioxa-2-thia-3,5-diazacyclononadeca[1,2,3-cd]indene-7-carboxylic Acid] | 0.139 | 0.025 | 0.000591 | 0.000771
8 | Cc1c2ccc(c1Cl)O[C@H](CN1CCN(C)CC1)COc1ccc(OCc3ccnc([C@H]4CCCN4C(=O)CCP(C)(C)=O)n3)c(c1)C[C@H](C(=O)O)Oc1ncnc3sc(-c4ccc(F)cc4)c-2c13 [Example 55, (7R,16R)-19-chloro-10-[(2-{(2R)-1-[3-(dimethylphosphoryl)propanoyl]pyrrolidin-2-yl}pyrimidin-4-yl)methoxy]-1-(4-fluorophenyl)-20-methyl-16-[(4-methylpiperazin-1-yl)methyl]-7,8,15,16-tetrahydro-18,21-etheno-13,9-(metheno)-6,14,17-trioxa-2-thia-3,5-diazacyclononadeca[1,2,3-cd]indene-7-carboxylic Acid] | 92.6 | 38.2 | > 1 | > 1
9 | Cc1c(Cl)c2c(Cl)c(C)c1-c1c(-c3ccc(F)cc3)sc3ncnc(c13)O[C@@H](C(=O)O)Cc1cc(ccc1OCc1ccnc(N3C[C@H](O)[C@@H](O)C3)n1)OC[C@@H](CN1CCN(C)CC1)O2 [Example 56, (7R,16R)-19,23-dichloro-10-({2-[(3S,4S)-3,4-dihydroxypyrrolidin-1-yl]pyrimidin-4-yl}methoxy)-1-(4-fluorophenyl)-20,22-dimethyl-16-[(4-methylpiperazin-1-yl)methyl]-7,8,15,16-tetrahydro-18,21-etheno-13,9-(metheno)-6,14,17-trioxa-2-thia-3,5-diazacyclononadeca[1,2,3-cd]indene-7-carboxylic Acid] | 1.18 | 0.157 | 0.0534 | 0.13
10 | COCCOCCOCCO[C@H]1CC[C@H](c2nccc(COc3ccc4cc3C[C@H](C(=O)O)Oc3ncnc5sc(-c6ccc(F)cc6)c(c35)-c3c(C)c(Cl)c(c(Cl)c3C)O[C@H](CN3CCN(C)CC3)CO4)n2)CC1 [Example 57, (7R,16R)-19,23-dichloro-1-(4-fluorophenyl)-10-({2-[(1r,4r)-4-{2-[2-(2-methoxyethoxy)ethoxy]ethoxy}cyclohexyl]pyrimidin-4-yl}methoxy)-20,22-dimethyl-16-[(4-methylpiperazin-1-yl)methyl]-7,8,15,16-tetrahydro-18,21-etheno-13,9-(metheno)-6,14,17-trioxa-2-thia-3,5-diazacyclononadeca[1,2,3-cd]indene-7-carboxylic Acid] | 0.072 | 0.013 | 0.000244 | 0.00037
11 | COCCOCCOCCOCCOCC1(c2nccc(COc3ccc4cc3C[C@H](C(=O)O)Oc3ncnc5sc(-c6ccc(F)cc6)c(c35)-c3c(C)c(Cl)c(c(Cl)c3C)O[C@H](CN3CCN(C)CC3)CO4)n2)CCC1 [Example 58, (7R,16R)-19,23-dichloro-1-(4-fluorophenyl)-20,22-dimethyl-16-[(4-methylpiperazin-1-yl)methyl]-10-({2-[1-(2,5,8,11,14-pentaoxapentadecan-1-yl)cyclobutyl]pyrimidin-4-yl}methoxy)-7,8,15,16-tetrahydro-18,21-etheno-13,9-(metheno)-6,14,17-trioxa-2-thia-3,5-diazacyclononadeca[1,2,3-cd]indene-7-carboxylic Acid] | 0.161 | 0.05 | 0.000378 | 0.00056
12 | COCCOCCOCCOCCOCCOCC1(c2nccc(COc3ccc4cc3C[C@H](C(=O)O)Oc3ncnc5sc(-c6ccc(F)cc6)c(c35)-c3c(C)c(Cl)c(c(Cl)c3C)O[C@H](CN3CCN(C)CC3)CO4)n2)CCC1 [Example 59, (7R,16R)-19,23-dichloro-1-(4-fluorophenyl)-10-({2-[1-(2,5,8,11,14,17-hexaoxaoctadecan-1-yl)cyclobutyl]pyrimidin-4-yl}methoxy)-20,22-dimethyl-16-[(4-methylpiperazin-1-yl)methyl]-7,8,15,16-tetrahydro-18,21-etheno-13,9-(metheno)-6,14,17-trioxa-2-thia-3,5-diazacyclononadeca[1,2,3-cd]indene-7-carboxylic Acid] | 0.122 | 0.047 | 0.000686 | 0.000848
